Source: US20230293526A1, “METHOD FOR TREATING CANCER WITH A REVERSE TRANSCRIPTASE INHIBITOR” (PrimeFour Therapeutics, Inc., priority 2020, published 2023)

Assays:
Experiment in all cases: Cell proliferation CellTiterGlo Ex.2
Assay type in all cases: cell-based
SK-N-MC = settings: Homo sapiens; SK-N-MC (Brain), 72 h
Method: (§1) A dose response relationship on cell proliferation was assessed for Compound 13 on 140 tumor cell lines. Briefly, compound treatment of cells started one day after seeding with a final DMSO concentration of 0.100, and was performed by nanodrop-dispensing using a Tecan Dispenser. 0.10% DMSO (solvent) and Staurosporine (10 μM) served as high control (10000 viability) and low control (000 viability), respectively. Compound 13 was tested at 10, 3, 1, 0.3, 0.1, 0.03, 0.01, and 0.003 μM.
(§2) Cells were cultured in the appropriate media. For the assays, cells were seeded in white cell culture-treated flat and clear bottom multiwell plates and incubated at 37° C. overnight before compound was added. After incubation for 72 h at 37° C. at 5% or 10% CO2 dependent on the medium, cell plates were equilibrated to room temperature for one hour, CellTiterGlo reagent (Promega) was added and luminescence was measured approximately an hour later using a luminometer.
(§3) Raw data were converted into percent cell viability relative to the high and low control, which were set to 10000 and 000, respectively.

HeLa = settings: Homo sapiens; HeLa (Cervix), 72 h
Method: as §1, §2, §3

HCT-15 = settings: Homo sapiens; HCT-15 (Colon), 72 h
Method: as §1, §2, §3

Mia PaCA 2 = settings: Homo sapiens; Mia PaCA 2 (Pancreas), 72 h
Method: as §1, §2, §3

T-47D = settings: Homo sapiens, T47D; T-47D (Breast), 72 h
Method: as §1, §2, §3

OCI-AML5 = settings: Homo sapiens, OCI-AML-5; OCI-AML5 (Blood), 72 h
Method: as §1, §2, §3

PC3 = settings: Homo sapiens, PC-3; PC3 (Prostate), 72 h
Method: as §1, §2, §3

PANC-1 = settings: Homo sapiens; PANC-1 (Pancreas), 72 h
Method: as §1, §2, §3

HuH7 = settings: Homo sapiens, Huh-7; HuH7 (Liver), 72 h
Method: as §1, §2, §3

HT-29 = settings: Homo sapiens; HT-29 (Colon), 72 h
Method: as §1, §2, §3

SU-DHL-5 = settings: Homo sapiens; SU-DHL-5 (Blood), 72 h
Method: as §1, §2, §3

MDA MB 435 = settings: Homo sapiens; MDA MB 435 (Skin), 72 h
Method: as §1, §2, §3

U-266 = settings: Homo sapiens; U-266 (Blood), 72 h
Method: as §1, §2, §3

NCI-H1703 = settings: Homo sapiens; NCI-H1703 (Lung), 72 h
Method: as §1, §2, §3

T84 = settings: Homo sapiens; T84 (Colon), 72 h
Method: as §1, §2, §3

U2OS = settings: Homo sapiens; U2OS (Bone), 72 h
Method: as §1, §2, §3

COV434 = COV434 (Ovary), 72 h
Method: as §1, §2, §3

LOVO = settings: Homo sapiens; LOVO (Colon), 72 h
Method: as §1, §2, §3

LP-1 = settings: Homo sapiens; LP-1 (Blood), 72 h
Method: as §1, §2, §3

H2228 = settings: Homo sapiens, NCI-H2228; H2228 (Lung), 72 h
Method: as §1, §2, §3

OVK18 = OVK18 (Ovary), 72 h
Method: as §1, §2, §3

EFO-27 = settings: Homo sapiens; EFO-27 (Ovary), 72 h
Method: as §1, §2, §3

SW480 = settings: Homo sapiens; SW480 (Colon), 72 h
Method: as §1, §2, §3

H460 = settings: Homo sapiens, NCI-H460; H460 (Lung), 72 h
Method: as §1, §2, §3

NCI-H82 = settings: Homo sapiens; NCI-H82 (Lung), 72 h
Method: as §1, §2, §3

J82 = settings: Homo sapiens; J82 (Bladder), 72 h
Method: as §1, §2, §3

LN229 = settings: Homo sapiens, LN-229; LN229 (Brain), 72 h
Method: as §1, §2, §3

NCI-H1437 = settings: Homo sapiens; NCI-H1437 (Lung), 72 h
Method: as §1, §2, §3

RERF-LC-MS = RERF-LC-MS (Lung), 72 h
Method: as §1, §2, §3

HEC-1-A = settings: Homo sapiens; HEC-1-A (Endometrium), 72 h
Method: as §1, §2, §3

NCI-H1048 = settings: Homo sapiens; NCI-H1048 (Lung), 72 h
Method: as §1, §2, §3

A375 = settings: Homo sapiens, A-375; A375 (Skin), 72 h
Method: as §1, §2, §3

Hutu 80 = settings: Homo sapiens, HuTu80; Hutu 80 (Duodenum), 72 h
Method: as §1, §2, §3

What does the source list for C#C[C@]1(CO)O[C@@H](n2cnc3c(=O)[nH]c(N)nc32)C[C@@H]1O [compound 13]?
IC50 (SK-N-MC): 3.19 µM; IC50 (HeLa): 1300 nM; IC50 (HCT-15): > 10 µM; IC50 (Mia PaCA 2): > 10 µM; IC50 (T-47D): > 10 µM; IC50 (OCI-AML5): 1370 nM; IC50 (PC3): 4.01 µM; IC50 (PANC-1): > 10 µM; IC50 (HuH7): 1240 nM; IC50 (HT-29): > 10 µM; IC50 (SU-DHL-5): 3.74 µM; IC50 (MDA MB 435): > 10 µM; IC50 (U-266): > 10 µM; IC50 (NCI-H1703): 9.16 µM; IC50 (T84): > 10 µM; IC50 (U2OS): 2180 nM; IC50 (COV434): 4.41 µM; IC50 (LOVO): 8.21 µM; IC50 (LP-1): 3.15 µM; IC50 (H2228): > 10 µM; IC50 (OVK18): 2210 nM; IC50 (EFO-27): 9.9 µM; IC50 (SW480): > 10 µM; IC50 (H460): 5.68 µM; IC50 (NCI-H82): 6.46 µM; IC50 (J82): 5.73 µM; IC50 (LN229): 2230 nM; IC50 (NCI-H1437): > 10 µM; IC50 (RERF-LC-MS): > 10 µM; IC50 (HEC-1-A): > 10 µM; IC50 (NCI-H1048): 2490 nM; IC50 (A375): 2370 nM; IC50 (Hutu 80): 1440 nM
